Results on 27 molecules are retold here after patent US9790169B2, “IDO inhibitors” (BRISTOL-MYERS SQUIBB COMPANY, priority 2015, dated 2017).

This assay has as its target human IDO1 (Homo sapiens, UniProt P14902). The assay is described as follows: Assessment of human IDO-1 inhibitory activity in Hela cells (Interferon-gamma stimulated HeLa cells, Ehrlich reagent, absorbance 490 nm). The class given is cell-based. On the set-up: endogenous in cells; host or cells: HeLa cells stimulated with interferon-gamma. To be noted: Hela Human IDO-1 cellular assay. The protocol: Exemplary compounds were tested for inhibition of IDO activity.
Assessment of Human IDO-1 Inhibitory Activity in Hela Cells
HeLa cells were seeded at 20,000 cells per 30 μL per well with RPMI/phenol red free media containing 10% FBS in a 384-well tissue culture plate (black with clear bottoms). 50 nL of compound was added to cells and incubated at 37° C. for one hour. 20 μL of the recombinant human Interferon-gamma (R&D System, Cat. #285-IF, at final concentration of 10 ng/ml) or recombinant murine Interferon-gamma (PEPROTECH® Inc., Cat. #315-05, final concentration of 5 ng/ml) was added to activate IDO signaling. The cells were incubated for 18 hours in 37° C. incubator with 5% CO2.
Compound treatment was stopped by adding 5 μl trichloroacetic acid to a final concentration of 3%. Subsequently, the cell plate was further incubated at 50° C. for 30 minute. An equal volume supernatant (20 μL) and 2% (w/v) Ehrlich reagent (4-dimethylaminobenzaldehyde) in glacial acetic acid were mixed in a new clear bottom 384-well plate. This plate was incubated at room temperature for 30 minutes. Absorbance at 490 nm was measured on Envision plate reader.
Compound IC50 values were calculated using counts from unstimulated (no INF-gamma treatment) wells as 100% inhibition. INF-gamma treatment without compound treatment as 0% inhibition.

Chain of human IDO1 (P14902 whole entry): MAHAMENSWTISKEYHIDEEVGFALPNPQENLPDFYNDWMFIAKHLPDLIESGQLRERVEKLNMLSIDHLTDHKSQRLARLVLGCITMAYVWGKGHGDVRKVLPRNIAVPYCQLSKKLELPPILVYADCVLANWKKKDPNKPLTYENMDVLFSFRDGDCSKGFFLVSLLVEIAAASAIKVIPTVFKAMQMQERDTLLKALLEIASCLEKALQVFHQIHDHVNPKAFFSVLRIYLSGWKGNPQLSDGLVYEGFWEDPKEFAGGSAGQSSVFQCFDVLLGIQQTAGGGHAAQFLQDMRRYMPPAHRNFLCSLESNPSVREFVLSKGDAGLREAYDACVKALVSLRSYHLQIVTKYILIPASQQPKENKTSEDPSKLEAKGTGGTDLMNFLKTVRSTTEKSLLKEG

`CCCN(c1ccc(C(CC)CC(=O)O)cc1Nc1ccc(C#N)cc1)C1CCS(=O)(=O)CC1` (single isomer, unassigned) [Example 12 Enantiomer 1, 3-(3-((4-Cyanophenyl)amino)-4-((1,1-dioxidotetrahydro-2H-thiopyran-4-yl)(propyl)amino)phenyl)pentanoic acid]: the IC50 (usually the concentration at which inhibition is half-maximal) was below 5 nM. `CCCN(c1ccc(C(CC)CC(=O)O)cc1Nc1cnc(OCC)nc1)C1CCS(=O)(=O)CC1` (single isomer, unassigned) [Example 13 Enantiomer 1, 3-(4-((1,1-Dioxidotetrahydro-2h-thiopyran-4-yl)(propyl)amino)-3-((2-ethoxypyrimidin-5-yl)amino)phenyl)pentanoic acid] showed an IC50 below 50 nM. Turning to `CCCN(c1ccc(C(CC)CC(=O)O)cc1NC(=O)Nc1ccc(C)cc1)C1CCS(=O)(=O)CC1` (single isomer, unassigned) [Example 14 Enantiomer 1, 3-(4-((1,1-Dioxidotetrahydro-2h-thiopyran-4-yl)(propyl)amino)-3-(3-(p-tolyl)ureido)phenyl)pentanoic acid], the IC50 is above 50 nM. Take `CCN(c1ccc(C(CC(=O)O)C2CC2)cc1Nc1ccc(Cl)cc1)C1CCOCC1` (single isomer, unassigned) [Example 33 Enantiomer 1, 3-(3-((4-Chlorophenyl)amino)-4-(ethyl(tetrahydro-2H-pyran-4-yl)amino)phenyl)-3-cyclopropylpropanoic acid]: the IC50 was below 5 nM. On to `CCN(c1ccc(C(CC(=O)O)C2CC2)cc1Nc1ccc(C#N)cc1)C1CCOCC1` (single isomer, unassigned) [Example 34, 3-(3-((4-cyanophenyl)amino)-4-(ethyl(tetrahydro-2H-pyran-4-yl)amino)phenyl)-3-cyclopropylpropanoic acid], for which the IC50 is below 5 nM. Next, `CCN(c1ccc(C(CC(=O)O)C2CC2)cc1Nc1cnc(OC)nc1)C1CCOCC1` (single isomer, unassigned) [Example 35, 3-cyclopropyl-3-(4-(ethyl(tetrahydro-2H-pyran-4-yl)amino)-3-((2-methoxypyrimidin-5-yl)amino)phenyl)propanoic acid]: below 50 nM; `CCOc1ncc(Nc2cc(C(CC(=O)O)C3CC3)ccc2N(CC)C2CCOCC2)cn1` (single isomer, unassigned) [Example 36, 3-cyclopropyl-3-(3-((2-ethoxypyrimidin-5-yl)amino)-4-(ethyl(tetrahydro-2H-pyran-4-yl)amino)phenyl)propanoic acid]: below 50 nM; `CCN(c1ccc(C(CC(=O)O)C2CC2)cc1NC(=O)Nc1ccc(C)cc1)C1CCOCC1` (single isomer, unassigned) [Example 40 Enantiomer 1, 3-Cyclopropyl-3-(4-(ethyl(tetrahydro-2H-pyran-4-yl)amino)-3-(3-(p-tolyl)ureido)phenyl)propanoic acid]: below 5 nM.

`CCN(c1ccc(C(CC(=O)O)C2CC2)cc1NC(=O)Nc1ccc(C)cc1)C1CCOCC1` (single isomer, unassigned) [Example 40 Enantiomer 2, 3-Cyclopropyl-3-(4-(ethyl(tetrahydro-2H-pyran-4-yl)amino)-3-(3-(p-tolyl)ureido)phenyl)propanoic acid] showed an IC50 below 50 nM.

In turn, `CCC(CC(=O)O)c1ccc(N2CCC(C)CC2)c(Nc2ccc(C#N)cc2)c1` (single isomer, unassigned) [Example 41 Enantiomer 1, 3-(3-((4-Cyanophenyl)amino)-4-(4-methylpiperidin-1-yl)phenyl)pentanoic acid] showed an IC50 below 50 nM. The molecule `CCC(CC(=O)O)c1ccc(N2CCC(C)CC2)c(Nc2cnc(OC)nc2)c1` (single isomer, unassigned) [Example 42, 3-(3-((2-methoxypyrimidin-5-yl)amino)-4-(4-methylpiperidin-1-yl)phenyl)pentanoic acid] showed an IC50 above 50 nM. Next, `CCOc1ncc(Nc2cc(C(CC)CC(=O)O)ccc2N2CCC(C)CC2)cn1` (single isomer, unassigned) [Example 43, 3-(3-((2-ethoxypyrimidin-5-yl)amino)-4-(4-methylpiperidin-1-yl)phenyl)pentanoic acid]: above 50 nM; `CCC(CC(=O)O)c1ccc(N2CCC(C)CC2)c(NC(=O)Nc2ccc(C)cc2)c1` (single isomer, unassigned) [Example 46 Enantiomer 1, 3-(4-(4-Methylpiperidin-1-yl)-3-(3-(p-tolyl)ureido)phenyl)pentanoic acid]: above 50 nM. The molecule `CCOc1ncc(Nc2cc(C(CC)CC(=O)O)ccc2N2CCC(c3ccccc3)CC2)cn1` (single isomer, unassigned) [Example 47 Enantiomer 1, 3-(3-((2-Ethoxypyrimidin-5-yl)amino)-4-(4-phenylpiperidin-1-yl)phenyl)pentanoic acid] had an IC50 below 5 nM. Turning to `CCOc1ncc(Nc2cc(C(CC)CC(=O)O)ccc2N2CCC(c3ccccc3)CC2)cn1` (single isomer, unassigned) [Example 47 Enantiomer 2, 3-(3-((2-Ethoxypyrimidin-5-yl)amino)-4-(4-phenylpiperidin-1-yl)phenyl)pentanoic acid], the IC50 was below 50 nM. Next, `CC(CC(=O)O)c1ccc(N(CC(C)(C)O)C2CCCCC2)c(Nc2ccc(Cl)cc2)c1` (single isomer, unassigned) [Example 48 Enantiomer 1, 3-(3-((4-Chlorophenyl)amino)-4-(cyclohexyl(2-hydroxy-2-methylpropyl)amino)phenyl)butanoic acid]: below 5 nM. `CC(CC(=O)O)c1ccc(N(CC(C)(C)O)C2CCCCC2)c(Nc2ccc3c(c2)OC(F)(F)O3)c1` (single isomer, unassigned) [Example 49, 3-(4-(cyclohexyl(2-hydroxy-2-methylpropyl)amino)-3-((2,2-difluorobenzo[d][1,3]dioxol-5-yl)amino)phenyl)butanoic acid] had an IC50 below 50 nM. As for `CCC(CC(=O)O)c1ccc(N(CC)C2CCCOC2)c(Nc2ccc(C#N)cc2)c1` (single isomer, unassigned) [Example 61, 3-(3-((4-cyanophenyl)amino)-4-(ethyl(tetrahydro-2H-pyran-3-yl)amino)phenyl)pentanoic acid], the IC50 is below 5 nM.

Molecule `CCC(CC(=O)O)c1ccc(N(CC)C2CCCOC2)c(Nc2cnc(OC)nc2)c1` (single isomer, unassigned) [Example 62, 3-(4-(ethyl(tetrahydro-2H-pyran-3-yl)amino)-3-((2-methoxypyrimidin-5-yl)amino)phenyl)pentanoic acid] came in with an IC50 below 5 nM. As for `CCOc1ncc(Nc2cc(C(CC)CC(=O)O)ccc2N(CC)C2CCCOC2)cn1` (single isomer, unassigned) [Example 63, 3-(3-((2-ethoxypyrimidin-5-yl)amino)-4-(ethyl(tetrahydro-2H-pyran-3-yl)amino)phenyl)pentanoic acid], the IC50 is below 5 nM. Next, `CCC(CC(=O)O)c1ccc(N(CC)C2CCCOC2)c(Nc2cnc(OC)nc2)c1` (single isomer, unassigned) [Example 65, 3-(4-(ethyl(tetrahydro-2H-pyran-3-yl)amino)-3-((2-methoxypyrimidin-5-yl)amino)phenyl)pentanoic acid]: below 5 nM; `CCC(CC(=O)O)c1ccc(N(CC)C2CCCOC2)c(Nc2cnc(OC)nc2)c1` (single isomer, unassigned) [Example 68, 3-(4-(ethyl(tetrahydro-2H-pyran-3-yl)amino)-3-((2-methoxypyrimidin-5-yl)amino)phenyl)pentanoic acid]: below 50 nM. Next, `CCC(CC(=O)O)c1cc(F)c(N(CC)C2CCOCC2)c(Nc2ccc(Cl)cc2)c1` (single isomer, unassigned) [Example 133, 3-(3-((4-Chlorophenyl)amino)-4-(ethyl(tetrahydro-2H-pyran-4-yl)amino)-5-fluorophenyl)pentanoic acid]: below 5 nM. Next, `CCC(CC(=O)O)c1cc(F)c(N(CC)C2CCOCC2)c(Nc2cnc(OC)nc2)c1` (single isomer, unassigned) [Example 135, 3-(4-(ethyl(tetrahydro-2H-pyran-4-yl)amino)-3-fluoro-5-((2-methoxypyrimidin-5-yl)amino)phenyl) pentanoic acid]: below 50 nM. As to `CCC(CC(=O)O)c1cc(F)c(N(CC)C2CCOCC2)c(Nc2cnc(OCC3CC3)nc2)c1` (single isomer, unassigned) [Example 136, 3-(3-((2-(cyclopropylmethoxy)pyrimidin-5-yl)amino)-4-(ethyl(tetrahydro-2H-pyran-4-yl)amino)-5-fluorophenyl)pentanoic acid], the IC50 is below 50 nM. Next, `CCC(CC(=O)O)c1cc(F)c(N(CC)C2CCOCC2)c(Nc2ccc(OC)nc2)c1` (single isomer, unassigned) [Example 137, 3-(4-(ethyl(tetrahydro-2H-pyran-4-yl)amino)-3-fluoro-5-((6-methoxypyridin-3-yl)amino)phenyl) pentanoic acid]: below 50 nM. Next, `CCC(CC(=O)O)c1cc(F)c(N(CC)C2CCOCC2)c(Nc2ccc(C#N)cn2)c1` (single isomer, unassigned) [Example 138, 3-(3-((5-cyanopyridin-2-yl)amino)-4-(ethyl (tetrahydro-2H-pyran-4-yl)amino)-5-fluorophenyl) pentanoic acid]: below 5 nM.
